Tests used:
[1] = system: S. mansoni adult schistosomes; experiment: Schistosomiasis screening, adult worm killing (S. mansoni); type: cell-based, Schistosoma mansoni; settings: for Kill % S. m: adult worms, final concentration 143 μM, 45 minutes incubation, washed, cultured 10-14 days, read day 14
Text: (§1) Schistosomiasis screening methods Strains of S. mansoni, S. haematobium, and S. japonicum were maintained by passage through species-specific snail intermediate hosts (Biomphlaria glabrata, Bulinus truncatus, and Oncomelania hupensis, respectively) and Golden Syrian Hamsters as a definitive host. Definitive host animals were sacrificed in accordance with IACUC protocol (UTHSCSA IACUC Protocol #08039) by intraperitoneal injection using Fatal-Plus (Butler Animal Health, Ohio), a sodium pentobarbital solution, with 10% heparin added. The adult parasites were obtained by perfusion as previously described using 0.9% saline containing EDTA.^1 Derivatives were solubilized in DMSO and diluted to working concentration of 50 mM and added directly to each well of a 24-well plate within 2-24 hours after harvesting adult schistosomes from the hamsters at a final concentration of 143 μM. Each analog was tested in triplicate. DMSO, oxamniquine (OXA, the parent drug known to kill only S. mansoni), or Hycanthone (HC, a carcinogen known to kill S. mansoni and S. haematobium) were used as controls as needed. Drugs were incubated with the worms at 37° C., 5% CO2 for 45 minutes, mimicking physiological conditions. The worms were washed with plain media 3 times to remove any residual derivatives. Worms were then incubated in culture media as previously described for a period of 10-14 days. On day 14, the assay gives % worms alive as an efficacy data point. For comparison, Oxaminiquine scores 50% alive in this assay.

[2] = system: S. haematobium adult schistosomes; experiment: Schistosomiasis screening, adult worm killing (S. haematobium); type: cell-based, Schistosoma haematobium; settings: adult worms, final concentration 143 μM, 45 minutes incubation, washed, cultured 10-14 days, read day 14
Text: as §1

[3] = system: S. japonicum adult schistosomes; experiment: Schistosomiasis screening, adult worm killing (S. japonicum); type: cell-based, Schistosoma japonicum; settings: adult worms, final concentration 143 μM, 45 minutes incubation, washed, cultured 10-14 days, read day 14
Text: as §1

SMILES | Kill % S. m [1] | also measured
CCCCCS(=O)(=O)OCC [CIDD-0150334] | 47% | 
O[C@@H]1c2ccccc2-c2cc3ccccc3c(F)c2[C@H]1O [CIDD-0150242] | 56% | 
CCCS(=O)(=O)OCC [CIDD-0150333] | 20% | 
c1cc2ccc3c4ccc5cccc(c(c1)c23)c54 [CIDD-0150609] | 16.6% | 
O=S([O-])([O-])=S.O=S([O-])([O-])=S.[Ag+].[Na+].[Na+].[Na+] [CIDD-0150303] | 100% | Kill % S. h [2]: 40%; Kill % S. j [3]: 100%
CC(=O)OC(C)N(N=O)C1CC1 (stereo not shown) [CIDD-0150327] | 3.3% | 
Oc1cccc2c1ccc1c(F)c3ccccc3cc12 [CIDD-0150240] | 20% | 
CC(C)NCC1CCc2cc(CO)c([N+](=O)[O-])cc2N1 (stereo not shown) [Oxaminiquine, oxamniquine, reference compound] |  | % worms alive ([1]; day 14, control drug for comparison, species not given): 50%
O=[N+]([O-])c1ccc2c3c1ccc1cccc(c13)[C@@H](O)[C@H]2O [CIDD-0150328] | 16% | 
Cn1c([N+](=O)[O-])nc2c3ccccc3ccc21 [CIDD-0150605] | 13% | 
Cc1c[nH]c2c1C13CC1CN(S(C)(=O)=O)C3=CC2=O (stereo not shown) [CIDD-0150241] | 33% | 
CCN(CC)CCNC(=O)c1cccc2c(N)c3ccccc3nc12 [CIDD-0150239] | 36% | 
C[C@@H](O)[C@H]1C(=O)N2C(C(=O)O)=C(S[C@@H]3CN[C@H](C(=O)Nc4cccc(C(=O)O)c4)C3)[C@H](C)[C@H]12 [CIDD-0150610] | 100% | Kill % S. h [2]: 100%; Kill % S. j [3]: 100%
CN(C)CCNC(=O)c1cccc2c(N)c3cc(Cl)ccc3nc12 [CIDD-0150235] | 60% | 
O=[N+]([O-])c1cc(NCC2(Cc3cccc(C(F)(F)F)c3)CCN(Cc3c[nH]c4ccccc34)C2)ccc1CO (stereo not shown) [CIDD-0149830, (4-(((1-((1H-indol-3-yl)methyl)-3-(3-(trifluoromethyl)benzyl)pyrrolidin-3-yl)methyl)amino)-2-nitrophenyl)methanol] | 100% | Kill % S. h [2]: 100%; Kill % S. j [3]: 100%
O=C(O)CCCn1c2ccccc2c(=O)c2ccccc21 [CIDD-0150302] | 80% | Kill % S. h [2]: 20%; Kill % S. j [3]: 40%
O=Nc1ccc2ccc3cc4ccccc4c4ccc1c2c34 [CIDD-0150608] | 93.3% | Kill % S. h [2]: 71.4%
CN(C)CCCNC(=O)c1cccc2c(N)c3ccccc3nc12 [CIDD-0150238] | 6% | 
O=[N+]([O-])c1ccc2c(O)cc3cccc4ccc1c2c43 [CIDD-0150329] | 40% | 
OCC(O)COc1ccccc1C1CCCC1 (stereo not shown) [CIDD-0150607] | 50% | 
Cc1c2ccccc2nc2c(C(=O)NCCN(C)C)cccc12 [CIDD-0150237] | 33% | 
CC(=O)Nc1cnc(COC(N)=O)n1C [CIDD-0150332] | 17% | 
C=CCN(N=O)C(C)OC(C)=O (stereo not shown) [CIDD-0150326] | 3.3% | 
Nc1c2ccccc2nc2c(C(=O)NCCNCCO)cccc12 [CIDD-0150236] | 43% | 
O=[N+]([O-])c1ccc2cc(O)c3cccc4ccc1c2c43 [CIDD-0150330] | 10% | 
Cc1nc(SC[C@H](N)C(=O)O)c(N)n1C [CIDD-0150331] | 10% | 
Cn1c([N+](=O)[O-])nc2ccc3ccccc3c21 [CIDD-0150606] | 100% | Kill % S. h [2]: 85.7%

Reference: patent US20220227709A1, “COMPOSITIONS AND METHODS FOR TREATING SCHISTOSOMA INFECTIONS” (THE BOARD OF REGENTS OF THE UNIVERSITY OF TEXAS SYSTEM, priority 2019, published 2022)
